Experimental data published in paper PMC4792735 (Clinical pharmacokinetics, 2016).
Values joined by “and” are separate entries in the source; they are usually repeats but may differ in a detail not shown here. Equal values may be shown once. Read-outs that look alike come from different tables or passages of the source. Values belong to the molecule of their own block, whether it stands above or below them.

Columns and labels:
human MATE1 = biological target: T1, human MATE1 (Homo sapiens, UniProt Q96FL8); test: Inhibition of [14C]-metformin uptake in HEK-MATE1 cells; type: cell-based; conditions: for inhibition at 10 x Cmax,u: human, probe [14C]-metformin 10 µM
T1 sequence (Q96FL8 1-570): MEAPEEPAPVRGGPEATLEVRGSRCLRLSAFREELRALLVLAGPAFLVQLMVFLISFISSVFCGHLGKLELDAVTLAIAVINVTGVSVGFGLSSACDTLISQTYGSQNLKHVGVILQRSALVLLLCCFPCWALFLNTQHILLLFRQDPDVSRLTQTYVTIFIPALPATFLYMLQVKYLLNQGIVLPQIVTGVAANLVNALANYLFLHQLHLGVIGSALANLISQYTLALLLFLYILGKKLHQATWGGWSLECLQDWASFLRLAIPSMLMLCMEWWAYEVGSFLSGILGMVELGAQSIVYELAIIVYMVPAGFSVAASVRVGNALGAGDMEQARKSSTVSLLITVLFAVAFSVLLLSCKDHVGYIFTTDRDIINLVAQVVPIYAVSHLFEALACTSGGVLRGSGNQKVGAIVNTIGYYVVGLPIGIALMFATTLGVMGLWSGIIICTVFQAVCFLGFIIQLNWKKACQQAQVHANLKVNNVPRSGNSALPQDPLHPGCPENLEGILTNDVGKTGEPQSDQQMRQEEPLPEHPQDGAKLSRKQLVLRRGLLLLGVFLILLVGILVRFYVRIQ

human OCT3 = biological target: T2, human OCT3 (Homo sapiens, UniProt O75751); test: Inhibition of [14C]-metformin uptake in HEK-OCT3 cells; type: cell-based; conditions: for metformin uptake (remaining): OCT3-mediated, inhibitor at 10x Cmax,u
T2 sequence (O75751 1-556): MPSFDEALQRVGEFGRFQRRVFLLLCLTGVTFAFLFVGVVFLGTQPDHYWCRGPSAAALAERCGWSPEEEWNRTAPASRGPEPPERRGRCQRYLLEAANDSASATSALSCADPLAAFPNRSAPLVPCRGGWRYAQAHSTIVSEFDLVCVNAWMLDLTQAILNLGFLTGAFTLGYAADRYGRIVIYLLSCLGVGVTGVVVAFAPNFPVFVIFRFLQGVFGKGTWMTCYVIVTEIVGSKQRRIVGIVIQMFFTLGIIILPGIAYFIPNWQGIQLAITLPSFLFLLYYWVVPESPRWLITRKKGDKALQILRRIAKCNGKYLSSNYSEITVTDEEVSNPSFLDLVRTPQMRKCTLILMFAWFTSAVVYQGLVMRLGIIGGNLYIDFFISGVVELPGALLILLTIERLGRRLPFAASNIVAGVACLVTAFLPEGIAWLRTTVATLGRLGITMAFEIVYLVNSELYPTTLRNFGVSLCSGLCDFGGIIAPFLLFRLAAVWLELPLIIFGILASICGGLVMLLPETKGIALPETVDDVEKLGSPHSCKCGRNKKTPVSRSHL

human OCT1 [1] = biological target: T3, human OCT1 (Homo sapiens, UniProt O15245); conditions: OCT1-mediated, inhibitor at 10x Cmax,u
T3 sequence (O15245 1-554): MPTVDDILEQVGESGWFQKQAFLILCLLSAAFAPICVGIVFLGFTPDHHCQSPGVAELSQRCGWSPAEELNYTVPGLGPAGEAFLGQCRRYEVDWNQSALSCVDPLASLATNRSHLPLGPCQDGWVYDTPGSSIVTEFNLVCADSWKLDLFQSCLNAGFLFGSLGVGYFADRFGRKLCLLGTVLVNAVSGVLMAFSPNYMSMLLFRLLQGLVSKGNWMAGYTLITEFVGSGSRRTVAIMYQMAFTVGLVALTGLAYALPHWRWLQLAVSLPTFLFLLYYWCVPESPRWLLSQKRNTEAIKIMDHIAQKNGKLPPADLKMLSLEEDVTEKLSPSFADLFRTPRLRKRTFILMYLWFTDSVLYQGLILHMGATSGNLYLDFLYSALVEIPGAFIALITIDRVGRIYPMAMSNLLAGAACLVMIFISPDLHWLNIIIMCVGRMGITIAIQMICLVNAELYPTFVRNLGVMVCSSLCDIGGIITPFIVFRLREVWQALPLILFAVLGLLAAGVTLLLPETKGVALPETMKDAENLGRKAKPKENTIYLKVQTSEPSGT

human MATE2K [2] = biological target: T4, human MATE2K (Homo sapiens, UniProt Q86VL8); test: in vitro; conditions: probe [14C]-metformin 10 µM
T4 sequence (Q86VL8 1-566 isoform Q86VL8-3): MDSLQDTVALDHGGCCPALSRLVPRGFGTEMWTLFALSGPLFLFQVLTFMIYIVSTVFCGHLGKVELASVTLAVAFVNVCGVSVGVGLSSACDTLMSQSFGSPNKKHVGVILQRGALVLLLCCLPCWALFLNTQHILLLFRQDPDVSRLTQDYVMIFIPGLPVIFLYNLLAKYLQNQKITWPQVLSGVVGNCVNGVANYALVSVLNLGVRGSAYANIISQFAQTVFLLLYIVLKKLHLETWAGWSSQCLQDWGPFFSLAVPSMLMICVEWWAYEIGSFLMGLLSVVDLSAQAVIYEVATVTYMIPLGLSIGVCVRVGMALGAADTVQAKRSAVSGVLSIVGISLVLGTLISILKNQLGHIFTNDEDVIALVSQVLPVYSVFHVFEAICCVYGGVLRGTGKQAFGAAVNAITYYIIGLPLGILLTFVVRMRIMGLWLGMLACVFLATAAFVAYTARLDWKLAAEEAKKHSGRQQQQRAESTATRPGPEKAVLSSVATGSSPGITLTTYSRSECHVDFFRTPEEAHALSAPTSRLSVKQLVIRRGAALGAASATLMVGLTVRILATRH

human PMAT = biological target: T5, human PMAT (Homo sapiens, UniProt Q7RTT9); test: Inhibition of [14C]-metformin uptake in MDCK-PMAT cells; type: cell-based
T5 sequence (Q7RTT9 1-530): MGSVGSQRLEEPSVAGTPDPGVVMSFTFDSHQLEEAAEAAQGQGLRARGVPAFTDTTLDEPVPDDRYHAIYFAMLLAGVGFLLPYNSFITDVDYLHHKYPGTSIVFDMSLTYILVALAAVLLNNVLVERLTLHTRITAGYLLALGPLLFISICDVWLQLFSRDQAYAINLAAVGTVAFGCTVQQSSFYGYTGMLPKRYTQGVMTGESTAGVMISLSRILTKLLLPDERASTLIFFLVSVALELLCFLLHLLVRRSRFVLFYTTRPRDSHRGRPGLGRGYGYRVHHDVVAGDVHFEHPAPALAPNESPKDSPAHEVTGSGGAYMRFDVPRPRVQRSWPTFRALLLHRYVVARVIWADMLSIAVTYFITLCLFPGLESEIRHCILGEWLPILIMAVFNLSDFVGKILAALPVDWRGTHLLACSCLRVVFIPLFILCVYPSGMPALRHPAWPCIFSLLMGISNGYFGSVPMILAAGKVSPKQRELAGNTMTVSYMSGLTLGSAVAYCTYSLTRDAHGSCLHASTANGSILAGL

human OCT1 [3] = biological target: T3, human OCT1; test: cell-based
human OCT2 = biological target: T6, human OCT2 (Homo sapiens, UniProt O15244); test: Inhibition of [14C]-metformin uptake in HEK-OCT2 cells; type: cell-based; conditions: for inhibition at 10 x Cmax,u: human, HEK293-Flp-In cells stably expressing human OCT2 (HEK-OCT2), probe [14C]-metformin 10 µM
T6 sequence (O15244 1-555): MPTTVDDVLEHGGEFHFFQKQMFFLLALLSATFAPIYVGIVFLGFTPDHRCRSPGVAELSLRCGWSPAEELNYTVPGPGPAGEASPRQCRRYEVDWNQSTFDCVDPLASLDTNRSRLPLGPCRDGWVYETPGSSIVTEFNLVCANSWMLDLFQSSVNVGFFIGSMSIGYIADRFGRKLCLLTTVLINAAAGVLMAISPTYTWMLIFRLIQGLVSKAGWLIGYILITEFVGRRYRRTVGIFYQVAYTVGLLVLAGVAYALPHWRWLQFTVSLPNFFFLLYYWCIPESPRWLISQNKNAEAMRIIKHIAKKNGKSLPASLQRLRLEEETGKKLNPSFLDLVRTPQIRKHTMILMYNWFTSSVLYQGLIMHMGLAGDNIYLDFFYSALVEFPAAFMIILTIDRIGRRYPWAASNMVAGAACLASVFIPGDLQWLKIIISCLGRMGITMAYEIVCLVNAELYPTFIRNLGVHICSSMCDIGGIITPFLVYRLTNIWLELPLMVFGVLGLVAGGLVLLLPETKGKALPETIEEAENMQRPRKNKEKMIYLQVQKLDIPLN

human MATE2K [4] = biological target: T4, human MATE2K; test: cell-based; conditions: IC50, [14C]-metformin 10 μM uptake, HEK-MATE2K
[5] = human plasma; cited from earlier work
[6] = type: in vivo, human
[7] = metformin 850 mg oral alone
clinical = conditions: human, po, 850 mg
[8] = metformin alone; OGTT 75 g 2 hours after dosing; p>0.1 vs pre-metformin

SMILES: Cc1nccn1CC1CCc2c(c3ccccc3n2C)C1=O (stereo not drawn) [ondansetron]
inhibition at 10 x Cmax,u (human MATE1): ≥ 50%
IC50 (human OCT3): > 1.32 µM
metformin uptake (remaining) (human OCT3): > 50%
metformin uptake (remaining) (human OCT1 [1]): > 50%
inhibition at 10 x Cmax,u (human MATE2K [2]): ≥ 50%
IC50 (human PMAT): > 1.32 µM
IC50 (human OCT1 [3]): > 1.32 µM

SMILES: CC(C)/N=c1\cc2n(-c3ccc(Cl)cc3)c3ccccc3nc-2cc1Nc1ccc(Cl)cc1 [clofazimine]
inhibition at 10 x Cmax,u (human MATE1): ≥ 50%

SMILES: CN/C(=N/CCSCc1nc[nH]c1C)NC#N [cimetidine]
inhibition at 10 x Cmax,u (human MATE1): ≥ 50%
inhibition at 10 x Cmax,u (human MATE2K [2]): ≥ 50%

SMILES: COc1c(N2C[C@@H]3CCCN[C@@H]3C2)c(F)cc2c(=O)c(C(=O)O)cn(C3CC3)c12 [moxifloxacin]
IC50 (human MATE1): 5.12 µM
inhibition at 10 x Cmax,u (human MATE1): ≥ 50%
IC50 (human OCT3): > 151 µM
inhibition at 10 x Cmax,u (human MATE2K [2]): ≥ 50%
IC50 (human PMAT): > 151 µM
IC50 (human OCT1 [3]): 47 µM
IC50 (human OCT2): > 151 µM
IC50 (human MATE2K [4]): 1.19 µM

SMILES: CNC(=C[N+](=O)[O-])NCCSCc1ccc(CN(C)C)o1 [ranitidine]
inhibition at 10 x Cmax,u (human MATE1): ≥ 50%
IC50 (human OCT3): 93.5 µM
metformin uptake (remaining) (human OCT3): > 50%
metformin uptake (remaining) (human OCT1 [1]): > 50%
inhibition at 10 x Cmax,u (human MATE2K [2]): ≥ 50%
IC50 (human PMAT): > 214 µM
IC50 (human OCT1 [3]): 26.8 µM
IC50 (human OCT2): 15.7 µM
IC50 (human MATE2K [4]): 4.63 µM

SMILES: C=CCN1CC[C@]23c4c5ccc(O)c4O[C@H]2C(=O)CC[C@@]3(O)[C@H]1C5 [naloxone]
inhibition at 10 x Cmax,u (human OCT2): ≥ 50%

SMILES: CNC(=C[N+](=O)[O-])NCCSCc1csc(CN(C)C)n1 [nizatidine]
IC50 (human MATE1): 52.7 µM
IC50 (human OCT3): 41.1 µM
metformin uptake (remaining) (human OCT3): > 50%
metformin uptake (remaining) (human OCT1 [1]): > 50%
inhibition at 10 x Cmax,u (human MATE2K [2]): ≥ 50%
IC50 (human PMAT): > 115 µM
IC50 (human OCT1 [3]): > 115 µM
IC50 (human OCT2): > 115 µM
protein binding [5]: 35%
half-life ([6]; human, plasma, oral): ~3 h
Cmax ([6]; human, plasma, po, 600 mg): 4200 ng/mL and 12.7 µM
calculated Cmax,u ([6]; nizatidine 600 mg oral, calculated with 35% protein binding): 2.7 ± 0.2 μg/mL and 8.2 μM
IC50 (human MATE2K [4]): 7.8 µM and 7.81 µM

SMILES: CN(C)C(=N)N=C(N)N [Metformin, metformin]
CL/F [7]: 1360 ± 440 mL/min
V/F [7]: 577 ± 179 L
Amount in urine0–24 ([7]; 11 subjects): 437 ± 86 mg
CL renal (clinical; plasma and urine): 736 ± 204 mL/min
AUC(0-inf) (clinical; plasma): 11400 ± 3300 ng·h/mL
AUC(0-t) (clinical; plasma): 11000 ± 3100 ng·h/mL
Cmax (clinical; plasma): 1810 ± 600 ng/mL
Tmax (clinical; plasma): 2.46 ± 0.66 h
glucose AUC after OGTT [8]: 3100 ± 121 mg·h/L

Second part, the molecule after the results:

inhibition at 10 x Cmax,u (human MATE1): ≥ 50%
inhibition at 10 x Cmax,u (human MATE2K [2]): ≥ 50%
inhibition at 10 x Cmax,u (human OCT2): ≥ 50%
SMILES: C=C[C@H]1C[N@@]2CC[C@H]1C[C@H]2[C@H](O)c1ccnc2ccc(OC)cc12 [quinine]

inhibition at 10 x Cmax,u (human MATE1): ≥ 50%
inhibition at 10 x Cmax,u (human MATE2K [2]): ≥ 50%
SMILES: COc1cc(Cc2cnc(N)nc2N)cc(OC)c1OC [trimethoprim]

inhibition at 10 x Cmax,u (human MATE2K [2]): ≥ 50%
SMILES: CC(=O)OCC(CCn1cnc2cnc(N)nc21)COC(C)=O [famciclovir]

inhibition at 10 x Cmax,u (human MATE2K [2]): ≥ 50%
inhibition at 10 x Cmax,u (human OCT2): ≥ 50%
SMILES: CCN(CC)CCNC(=O)c1ccc(N)cc1 [procainamide]

inhibition at 10 x Cmax,u (human MATE1): ≥ 50%
SMILES: Nc1nc(NC2CC2)c2ncn([C@H]3C=C[C@@H](CO)C3)c2n1 [abacavir]

IC50 (human MATE1): 19.9 µM
inhibition at 10 x Cmax,u (human MATE1): ≥ 50%
IC50 (human OCT3): > 160 µM
metformin uptake (remaining) (human OCT3): > 50%
metformin uptake (remaining) (human OCT1 [1]): > 50%
inhibition at 10 x Cmax,u (human MATE2K [2]): ≥ 50%
IC50 (human PMAT): > 160 µM
IC50 (human OCT1 [3]): > 160 µM
IC50 (human OCT2): > 160 µM
IC50 (human MATE2K [4]): 4.74 µM
SMILES: CCn1cc(C(=O)O)c(=O)c2cc(F)c(N3CCNCC3)cc21 [norfloxacin]
